From patent US20250361469A1, “Lymph Node on a Chip Device and Method” (New York University, priority 2024, published 2025) come the findings set out here.

Test [1] concerns DCs and T cells in LN chip. Description: OVA I model antigen initiating adaptive immune process in the LN chip. Type of test: cell-based, human.
A further test has as its system DCs and FRCs. Description: CCL19 and CCL21 secretion by DCs and FRCs in paracortical area of LN chip under TNF-α (ELISA). As to conditions: inflammatory conditions affected by TNF-α. Type of test: cell-based, human. (In an ELISA, binding on a coated surface is turned into a signal by an enzyme label.)

Regarding “Ovalbimin [OVA I, model antigen (Sigma Aldrich) to initiate the adaptive immune process in the LN chip]”, the “DC maturation (imDCs to mDCs)” value in test [1] (OVA I as model antigen in LN chip) is “transformed into mDCs”. Besides, in test [1] (OVA I-induced mDCs vs imDCs), the T cell activation result is reported as “enhanced”, the T cell migration result is recorded as “enhanced” and the T cell proliferation result was “enhanced”.

TNF-α: in the test with DCs and FRCs, the “secretion of CCL19 by DCs and FRCs” value was “increases”; the “secretion of CCL21 by DCs and FRCs” value was “increases”.
